This assay deals with xanthine oxidase (Bos taurus, UniProt P80457). The assay can be described thus: in vitro xanthine oxidase inhibition (hypoxanthine substrate, absorbance at 292, pH 7.4 buffer; Baker et al procedure). The assay is classed as biochemical. To be noted: hypoxanthine 6 × 10^-5 M solution, 1 minute; for inhibition at 20 µM: test compound 2 × 10^-5 M. As to the method:
The procedure used employed the principals described in J. Pharm.
A reference cuvette is filled with 0.05M pH 7.4 buffer. For the control, mix quickly in a cuvette 2 ml. hypoxanthine solution (6 × 10^-^5 M), 2 ml.

Sequence of xanthine oxidase (P80457 whole entry): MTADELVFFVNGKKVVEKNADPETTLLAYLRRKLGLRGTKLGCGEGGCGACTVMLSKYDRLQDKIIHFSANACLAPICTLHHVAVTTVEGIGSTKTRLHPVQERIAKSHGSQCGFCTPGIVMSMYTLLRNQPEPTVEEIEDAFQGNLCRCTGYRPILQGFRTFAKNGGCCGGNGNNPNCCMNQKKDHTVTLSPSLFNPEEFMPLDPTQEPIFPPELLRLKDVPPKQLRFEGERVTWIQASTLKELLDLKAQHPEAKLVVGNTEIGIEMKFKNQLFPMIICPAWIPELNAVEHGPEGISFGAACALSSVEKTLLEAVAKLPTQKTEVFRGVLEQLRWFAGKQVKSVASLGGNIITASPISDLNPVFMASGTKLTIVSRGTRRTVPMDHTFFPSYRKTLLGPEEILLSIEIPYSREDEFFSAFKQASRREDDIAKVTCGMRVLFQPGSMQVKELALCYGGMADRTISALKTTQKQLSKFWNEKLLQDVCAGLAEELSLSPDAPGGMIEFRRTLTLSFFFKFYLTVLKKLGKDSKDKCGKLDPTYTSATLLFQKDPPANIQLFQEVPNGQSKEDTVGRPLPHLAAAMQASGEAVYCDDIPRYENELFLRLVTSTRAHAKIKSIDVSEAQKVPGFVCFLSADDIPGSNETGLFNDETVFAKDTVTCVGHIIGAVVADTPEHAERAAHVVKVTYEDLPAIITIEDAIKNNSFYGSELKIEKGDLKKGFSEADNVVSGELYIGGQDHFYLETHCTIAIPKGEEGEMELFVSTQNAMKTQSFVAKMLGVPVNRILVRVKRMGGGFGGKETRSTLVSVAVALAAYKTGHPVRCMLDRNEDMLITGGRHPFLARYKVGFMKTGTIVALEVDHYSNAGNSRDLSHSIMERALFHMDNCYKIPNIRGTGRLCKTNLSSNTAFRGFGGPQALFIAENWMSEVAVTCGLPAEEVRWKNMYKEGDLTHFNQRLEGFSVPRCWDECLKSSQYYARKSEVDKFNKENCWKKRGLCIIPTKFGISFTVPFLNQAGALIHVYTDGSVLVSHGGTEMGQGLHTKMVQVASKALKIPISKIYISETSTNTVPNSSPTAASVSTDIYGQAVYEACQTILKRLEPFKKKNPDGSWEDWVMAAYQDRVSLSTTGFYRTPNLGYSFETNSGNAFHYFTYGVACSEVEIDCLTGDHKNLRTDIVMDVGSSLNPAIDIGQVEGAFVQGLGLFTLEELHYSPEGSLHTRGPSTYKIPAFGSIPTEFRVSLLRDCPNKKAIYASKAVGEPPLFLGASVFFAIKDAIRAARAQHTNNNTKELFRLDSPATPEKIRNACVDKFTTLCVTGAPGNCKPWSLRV

In the case of `CCCN(CCC)S(=O)(=O)c1cc2c(cc1Cl)N=C(CCl)NS2(=O)=O`, the inhibition at 20 µM was found to be 69%.

The compound `NS(=O)(=O)c1cc2c(cc1Cl)N=C(CCl)NS2(=O)=O` yielded an inhibition at 20 µM of 24%.

`CCCN(CCC)S(=O)(=O)c1cc2c(c(Cl)c1Cl)N=C(CCl)NS2(=O)=O` yielded an inhibition at 20 µM of 33%.

Compound `NS(=O)(=O)c1cc2c(cc1Cl)NC(C(Cl)(Cl)Cl)NS2(=O)=O` (centres unmarked) gave an inhibition at 20 µM of 45%.

Take `CNS(=O)(=O)c1cc2c(cc1Cl)NC(C(Cl)(Cl)Cl)NS2(=O)=O` (centres unmarked): the inhibition at 20 µM stood at 16%.

In the case of `CCCN(CCC)S(=O)(=O)c1cc2c(cc1Cl)NC(C(Cl)(Cl)Cl)NS2(=O)=O` (centres unmarked) [3-Trichloromethyl-6-chloro-7-N,N-di-n-propylsulfamoyl-3,4-dihydro-1,2,4-benzothiadiazine-1,1-dioxide], 20 µM produced 6% inhibition.

On to `C=CCN(CC=C)S(=O)(=O)c1cc2c(cc1Cl)NC(C(Cl)(Cl)Cl)NS2(=O)=O` (centres unmarked), for which the inhibition at 20 µM amounted to 6%.

`CCCN(CCC)S(=O)(=O)c1cc2c(cc1Cl)N=C(CBr)NS2(=O)=O` registered an inhibition at 20 µM of 30%.

In turn, `CCCN(CCC)S(=O)(=O)c1cc2c(cc1Cl)N=C(C(Cl)(Cl)Cl)NS2(=O)=O` came in with an inhibition at 20 µM of 14%.

`CN(C)S(=O)(=O)c1cc2c(cc1Cl)N=C(C(Cl)(Cl)Cl)NS2(=O)=O`: testing at 20 µM gave an inhibition of 5%.

For the compound `CCCN(CCC)S(=O)(=O)c1cc2c(cc1Cl)N=C(C(Cl)Cl)NS2(=O)=O`, the inhibition at 20 µM was determined as 12%.

On to `CCN(CC)S(=O)(=O)c1cc2c(cc1Cl)N=C(C(Cl)Cl)NS2(=O)=O`, for which the inhibition at 20 µM worked out at 18%.

In turn, `CN(C)S(=O)(=O)c1cc2c(cc1Cl)N=C(CCl)NS2(=O)=O` [3-Chloromethyl-6-chloro-7-N,N-dimethylsulfamoyl-1,2,4-benzothiadiazine-1,1-dioxide] returned an inhibition at 2 µM (1 min, test compound at 2 × 10^-6 (footnote 1)) of 52%.

As to `CCN(CC)S(=O)(=O)c1cc2c(cc1Cl)N=C(C(Cl)(Cl)Cl)NS2(=O)=O`, testing at 20 µM gave an inhibition of 3%.

Turning to `C=CCN(CC=C)S(=O)(=O)c1cc2c(cc1Cl)N=C(CCl)NS2(=O)=O`, the inhibition at 20 µM was 53%.

`CCN(CC)S(=O)(=O)c1cc2c(cc1Cl)N=C(CCl)NS2(=O)=O` came in with an inhibition at 20 µM of 75%.

With `CCNS(=O)(=O)c1cc2c(cc1Cl)N=C(C(Cl)Cl)NS2(=O)=O`, 20 µM produced 6% inhibition.

The compound `CCCN(CCC)S(=O)(=O)c1cc2c(c(Cl)c1Cl)N=C(C(Cl)Cl)NS2(=O)=O` yielded an inhibition at 20 µM of 21%.

For the compound `CCNS(=O)(=O)c1cc2c(cc1Cl)NC(C(Cl)(Cl)Cl)NS2(=O)=O` (centres unmarked), the inhibition at 20 µM was determined as 63%.

Take `CCCN(CCC)S(=O)(=O)c1cc2c(c(Cl)c1Cl)N=C(C(Cl)(Cl)Cl)NS2(=O)=O`: the inhibition at 20 µM turned out to be 26%.

Compound `CN(C)S(=O)(=O)c1cc2c(cc1Cl)N=C(C(C)(Cl)Cl)NS2(=O)=O` showed an inhibition at 20 µM of 13%.

Compound `CNS(=O)(=O)c1cc2c(cc1Cl)N=C(CCl)NS2(=O)=O` showed an inhibition at 20 µM of 78%.

With `CN(C)S(=O)(=O)c1cc2c(cc1Cl)N=C(C(Cl)Cl)NS2(=O)=O`, the inhibition at 20 µM came to 11%.

A word on the inhibition: it is the percentage by which the read-out fell short of the control. Read a high inhibition as strong suppression.

For the origin of these results see patent publication US3969518A, “Inhibiting xanthine oxidase with 3-haloalkyl substituted benzothiadiazine-1,1-dioxides” (Merck & Co., Inc., priority 1972, dated 1976).
